One may read the melting point as the temperature of the solid-liquid transition. Regarding `CC(=O)c1cc2c(C(C)=O)c(OCC(O)CNC(C)(C)C)ccc2o1` (stereo unspecified), the melting point was determined as 122 °C.

Compound `O=c1[nH]c2ncc(-c3ccc(O)cc3)nc2n1C1CCOCC1` showed a melting point of 382 to 383 °C.

In turn, `C=Cn1cc(C(=O)O)c(=O)c2cc(F)c(F)c(F)c21` yielded a melting point of 186 to 187 °C. `N#CCc1nnc2n1-c1sc(Cl)cc1C(c1ccccc1Cl)=NC2`: the melting point fell in the range of 217 to 220 °C. Under `COC(=O)C(C)N(C(=O)CS)c1c(C)cccc1C` (stereo unspecified) stands 62.5 to 63 °C; under `CC(C)(C)OC(=O)[C@@H]1CNC(=O)N1C(=O)OCc1ccccc1`, 138 to 139 °C; under `Nc1nc(Cc2cccs2)no1`, 132 to 133 °C. `CSc1nccc(C)c1NC(=O)CSc1nc2ccccc2o1` displayed a melting point of 146 to 148 °C. Regarding `CCCCN=C(CS(C)=O)c1cccc(OC)c1O` (stereo unspecified), the melting point was in the range of 125 to 127 °C. `CC(C)n1c(CC[C@@H](O)C[C@@H](O)CC(=O)O)c(-c2ccc(F)cc2)c(-c2ccc(F)cc2)c1C(=O)NCc1ccc(C(=O)O)cc1` gave a melting point of 140 to 142 °C. In turn, `O=C1N(Cc2ccc(C(F)(F)F)o2)c2ccccc2C12COc1cc3c(cc12)CCO3` (stereo unspecified) registered a melting point of 64 to 65 °C. Turning to `CC1CCCC(C)N1S(=O)(=O)N[C@@H](Cc1ccc(NC(=O)c2c(Cl)cncc2Cl)cc1)C(=O)O` (stereo partly specified), the melting point was 162 °C. Take `CCOc1ccc(C2=NN(c3ccc(C(=O)N4CCN(c5cnn(-c6ccccc6)c(=O)c5Cl)CC4)cc3)C(=O)[C@@H]3CC=CC[C@H]23)cc1OCC`: the melting point was in the range of 148 to 151 °C. In turn, `OC(Cn1cncn1)c1ccc(-c2ccc(Cl)cc2)cc1` (stereo unspecified) showed a melting point of 199 °C.

As to `c1cc2c3c(cccc3c1)C(NCCCCCCCCCCCCn1ccnc1)=N2`, the melting point lay within 95 to 97 °C. In turn, `COC(=O)C=C(c1ccc(C#N)cc1)n1ccnc1` had a melting point of 144 to 147 °C. `Oc1ccc(O)c(-c2nc3cc(O)ccc3o2)c1` registered a melting point of 309 to 311 °C. Under `Nc1ccc(C2=NCCO2)cc1` stands 163 to 165 °C; under `CCCNC(=O)[C@H](CSCc1ccccc1)NC(=O)c1cc2cccc(NS(=O)(=O)c3cccs3)c2[nH]1`, 124 to 125 °C. Under `Cc1cc(C(=O)N2CCCC2)ccc1[N+](=O)[O-]` stands 61.3 to 61.9 °C; under `Nc1c([N+](=O)[O-])cc(F)c(F)c1Cl`, 86 to 88 °C. The compound `COc1ccc(CCN(C(C)=O)c2c(C)c(C)c3c(c2C)C(c2ccc(C(C)C)cc2)C(C)(C)O3)cc1` (stereo unspecified) displayed a melting point of 134 to 136 °C. Under `COc1cc(F)c(-c2nn(C)c(C(F)(F)F)c2Cl)cc1[N+](=O)[O-]` stands 116 °C; under `COc1cccc2c1nc(-c1c(F)cccc1F)n2Cc1c(F)cccc1F`, 154 to 155 °C; under `CCOC(=O)C1CCNC(=O)C1=NCCc1ccccc1` (stereo unspecified), 99 to 100 °C. For `CCOCc1nc2c(N)nc(C)c(C)c2n1NCc1cccnc1`, the melting point lay within 147 to 149 °C. Under `CC1=Nc2ccccc2N(Cc2ccccc2)C(=O)C1` stands 111 to 113 °C; under `CCN(c1ccccc1C)S(=O)(=O)c1cc([N+](=O)[O-])ccc1C`, 78 to 80 °C. The same measure for `CCCOc1ccccc1-c1ccc(-c2nnn[nH]2)c(=O)[nH]1`: 229 to 231 °C; for `CCc1ncnc(NC(CC)c2ccc(Oc3ncccn3)cc2)c1Cl` (stereo unspecified): 100 to 112 °C. In turn, `Cc1c(-c2ccccc2)nc(C(F)(F)F)oc1=O` had a melting point of 70 °C. Turning to `O=C(c1ccc(O)cc1)c1cccc(O)c1`, the melting point lay in the range of 200 to 201 °C. The same measure for `C#CCN1C(=O)COc2cc(-c3nn(C)c(C(F)(F)F)c3Cl)c(F)cc21`: 184 °C; for `C=CCOc1cc2c(cc1CC=C)CCC(=O)N2CC=C(C)C`: 20 to 28 °C. As for `O=C1c2ccccc2C(=O)c2sc(-c3ccncc3)nc21`, the melting point was over 260 °C.

The compound `C[C@H](NC(CCC(=O)O)C(=O)O)C(=O)N1CCC[C@H]1C(=O)O` (stereo partly specified) displayed a melting point of 140 to 160 °C. Under `COC(=O)Cn1cccc(O)c1=O` stands 141 to 142 °C; under `CS(=O)CCC(=O)Nc1ccc(OCC(O)CO)cc1` (stereo unspecified), 139 to 141 °C; under `CC(C)(C)c1cc(SCCC(=O)NC2CCC3CC2C3(C)C)cc(C(C)(C)C)c1O` (stereo unspecified), 152 to 154 °C. For the compound `COc1cccc(CN[C@@H](C)C2CCCCC2)c1O`, the melting point fell in the range of 65 to 66 °C. `O=C(CCCCCN1CCN(c2cccc3c2CCC3)CC1)N1Cc2ccccc2C1` yielded a melting point of 112 °C. `COc1cccc(OC)c1C(=O)Nc1nnc(-c2nc3ccccc3s2)s1` registered a melting point of over 260 °C. Under `COc1ccc(F)c2c1CCC(C=O)C2=O` (stereo unspecified) stands 66 to 68 °C.

The compound `Cc1ccccc1COC(C)(CO)CO` registered a melting point of 90 to 91 °C.

`O=C(NC1(Cc2ccccc2)C=CCC1)C(Cl)(Cl)Cl` (stereo unspecified) registered a melting point of 127 to 128 °C.

As for `C=C1NC(=O)N(CCCC)C1=O`, the melting point was 73 °C. As for `COc1ccc(CN2CCCc3cc(OCc4ccccc4)c(OC)cc3C2)cc1`, the melting point was 87 to 88 °C. `NCc1cccc(N)c1` registered a melting point of 40 to 43 °C. Take `COc1cc(C=C(Cl)Cl)nc(N)n1`: the melting point lay in the range of 90 to 91 °C.

As to `COc1cccc(C(=O)Nc2ccc(C(=O)c3ccccc3)cc2)c1`, the melting point fell in the range of 139 to 141 °C. Regarding `COc1ccc(C(O)CN2CCN(C(c3ccccc3)c3ccccc3)CC2)c(OC)c1OC` (stereo unspecified), the melting point was determined as 128 °C.

As to `O=C(NCCCCCCOC(=O)Oc1ccc([N+](=O)[O-])cc1)Oc1ccc(Oc2ccccc2)cc1`, the melting point fell in the range of 102 to 104 °C.

For the compound `COCCOc1ccc(CCCOC(=O)NS(N)(=O)=O)c(Oc2ncc(Cl)cc2Cl)c1`, the melting point fell in the range of 153 to 154 °C. The same measure for `CNC(=O)c1cc2c(nc(C)n2C)c2c1CCC(OC)(c1ccccc1C)O2` (stereo unspecified): 257 to 261 °C; for `O=C1C(CCO)Oc2ccccc2N1Cc1ccncc1` (stereo unspecified): 153 to 154 °C; for `CCCCC(CC)COc1ccc(C=C2C(=O)C3CCN2CC3)cc1` (stereo unspecified): 37 °C.

`CC(CCC(O)CO)=Nc1ncnc2c1ncn2C1OC(CO)C(O)C1O` (stereo unspecified) showed a melting point of 102 to 104 °C. Under `CS(=O)(=O)Oc1ccc(N2CC(COc3ccc(C(=O)O)cc3)CC2=O)cc1` (stereo unspecified) stands 199 to 201 °C; under `O=C1Nc2ccccc2Sc2c1cccc2C(F)(F)F`, 256 to 258 °C; under `Oc1ccc2nc(Nc3ccccc3)cnc2c1`, 211 to 213 °C. Compound `Cn1c(CO)nc2cnccc21` showed a melting point of 285 to 290 °C. Take `CCCCc1ccc(NC(=O)Nc2ccc(S(N)(=O)=O)cc2)cc1`: the melting point lay within 243 to 245 °C. Compound `CCOC(=O)Cc1csc(Nc2ccc(Cl)c(C(F)(F)F)c2)n1` came in with a melting point of 148 to 150 °C. As to `COc1cc(O)c(Cl)c2cc(-c3ccc(O)cc3)oc12`, the melting point was 176 to 177 °C. The same measure for `CN1C(=O)C(c2ccc(OC(F)F)cc2)(c2cccc(C3CC(=O)C3)c2)N=C1N` (stereo unspecified): 68 to 70 °C. For `COC(=O)c1ccc(COc2ccc3c(c2)CCN(C2CCN(C4CCC4)CC2)C3=O)cc1`, the melting point was 165 to 166 °C.

These data come from a melting point compilation (Tetko et al.; mined from patent text by program, amines drawn as free bases though some values may be those of a salt).
